Measured values published in ChEMBL document CHEMBL1201862, “PubChem BioAssay data set” (2004).
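Interpolation was linear, between the two tested concentrations surrounding the appropriate level; five concentrations were tested over 48 hours in 96-well plates. GI50 marks 50% less growth.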 Active and inactive are the calls of the source. No stated cut-off is given here; in the data, active = GI50 up to about 1.1 µM and inactive = higher.

What was measured:
Experiment in all cases: growth of human tumour cells (NCI), 48 h
ACHN = tested on: ACHN
EKVX = tested on: EKVX
HCT-15 = tested on: HCT-15
HOP-62 = tested on: HOP-62
KM12 = tested on: KM12
LOX IMVI = tested on: LOX IMVI
M14 = tested on: M14
NCI-H460 = tested on: NCI-H460
OVCAR-5 = tested on: OVCAR-5
OVCAR-8 = tested on: OVCAR-8
SF-268 = tested on: SF-268
SK-MEL-28 = tested on: SK-MEL-28
SN12C = tested on: SN12C
UACC-257 = tested on: UACC-257
UO-31 = tested on: UO-31
SK-MEL-5 = tested on: SK-MEL-5
HOP-92 = tested on: HOP-92

| SMILES | GI50 (ACHN) | GI50 (EKVX) | GI50 (HCT-15) [µM] | GI50 (HOP-62) | GI50 (KM12) | GI50 (LOX IMVI) | GI50 (M14) | GI50 (NCI-H460) | GI50 (OVCAR-5) | GI50 (OVCAR-8) | GI50 (SF-268) | GI50 (SK-MEL-28) | GI50 (SN12C) | GI50 (UACC-257) | GI50 (UO-31) | GI50 (SK-MEL-5) | GI50 (HOP-92) |
| --- | --- | --- | --- | --- | --- | --- | --- | --- | --- | --- | --- | --- | --- | --- | --- | --- | --- |
| CCOC(=O)c1cc(-c2ccc(-c3cc(C(=O)OCC)c(C#N)c(N)c3C#N)cc2)c(C#N)c(N)c1C#N | > 100 µM (inactive) | > 100 µM (inactive) | > 100 | > 100 µM (inactive) | > 100 µM (inactive) | > 100 µM (inactive) | > 100 µM (inactive) | > 100 µM (inactive) | > 100 µM (inactive) | > 100 µM (inactive) | > 100 µM (inactive) | > 100 µM (inactive) | > 100 µM (inactive) | > 100 µM (inactive) | > 100 µM (inactive) |  |  |
| CO[C@H](C(=O)O[C@H]1C(=O)N2CCC3CCC1C32C)c1ccccc1 (some centres undefined) | > 100 µM (inactive) | > 100 µM (inactive) | > 100 | > 100 µM (inactive) | > 100 µM (inactive) | > 100 µM (inactive) | > 100 µM (inactive) | > 100 µM (inactive) | > 100 µM (inactive) | > 100 µM (inactive) | > 100 µM (inactive) | > 100 µM (inactive) | > 100 µM (inactive) | > 100 µM (inactive) | > 100 µM (inactive) | > 100 µM (inactive) |  |
| CC(N)CC(=O)O (centres undefined) | > 5000 µM (inactive) | > 5000 µM (inactive) | > 5000 |  | > 5000 µM (inactive) |  | > 5000 µM (inactive) | > 5000 µM (inactive) | > 5000 µM (inactive) |  | > 5000 µM (inactive) | > 5000 µM (inactive) | > 5000 µM (inactive) | > 5000 µM (inactive) | > 5000 µM (inactive) | > 5000 µM (inactive) | > 5000 µM (inactive) |
| COc1cc2cnc3c4cc(OCc5ccccc5)ccc4ccc3c2cc1OC | 46.7 µM (inactive) | 58.3 µM (inactive) | 70.1 | 18.9 µM (inactive) | 29.8 µM (inactive) | 29.6 µM (inactive) | 19.8 µM (inactive) | 19 µM (inactive) | > 100 µM (inactive) | 18.2 µM (inactive) | 19.4 µM (inactive) | 38.3 µM (inactive) | 73.3 µM (inactive) | 26.7 µM (inactive) | 27.2 µM (inactive) | 17.4 µM (inactive) | 16.6 µM (inactive) |
| NC(=S)N/N=C/C(O[C@@H](/C=N/NC(N)=S)CO)n1cnc2c(N)ncnc21 (some centres undefined) | > 100 µM (inactive) | > 100 µM (inactive) | > 42.3 | > 100 µM (inactive) | > 100 µM (inactive) | > 100 µM (inactive) | > 100 µM (inactive) | > 80.5 µM (inactive) | > 100 µM (inactive) | > 91.2 µM (inactive) | > 85.5 µM (inactive) | > 100 µM (inactive) | > 100 µM (inactive) | > 100 µM (inactive) | > 100 µM (inactive) | 44.6 µM (inactive) | 97.5 µM (inactive) |
| CC[P+](C)(C)c1ccccc1 | > 100 µM (inactive) | > 100 µM (inactive) | > 100 | > 100 µM (inactive) | > 100 µM (inactive) | > 100 µM (inactive) | > 100 µM (inactive) | > 100 µM (inactive) | > 100 µM (inactive) | > 100 µM (inactive) | > 100 µM (inactive) | > 100 µM (inactive) | > 100 µM (inactive) | > 100 µM (inactive) | > 100 µM (inactive) | > 100 µM (inactive) |  |
| C/C(CC(=O)Nc1ccccc1[N+](=O)[O-])=N\NC(N)=O | > 100 µM (inactive) | > 100 µM (inactive) |  | > 100 µM (inactive) | > 100 µM (inactive) | > 100 µM (inactive) | > 100 µM (inactive) | > 100 µM (inactive) | > 100 µM (inactive) | > 100 µM (inactive) | > 100 µM (inactive) | > 100 µM (inactive) |  | > 100 µM (inactive) | > 100 µM (inactive) | > 100 µM (inactive) | > 100 µM (inactive) |
| COc1cc(C2c3cc4c(cc3C(NCC(O)CO)C3COC(=O)[C@H]23)OCO4)cc(OC)c1OC (some centres undefined) | 0.69 µM (active) | 0.4 µM (active) | 2.45 | 0.221 µM (active) | 0.217 µM (active) | 0.146 µM (active) | 0.533 µM (active) | 0.435 µM (active) | > 100 µM (inactive) | 0.429 µM (active) | 0.374 µM (active) | 0.617 µM (active) | 0.466 µM (active) | > 100 µM (inactive) | 4.37 µM (inactive) |  |  |
| CCOC(=O)c1c2ccc(/C=C/c3ccccn3)ccc-2c(C(=O)OCC)c1N | 73.5 µM (inactive) | > 100 µM (inactive) | > 100 |  | > 100 µM (inactive) | > 100 µM (inactive) | > 100 µM (inactive) | 89.1 µM (inactive) | > 100 µM (inactive) |  | 0.091 µM (active) | 0.361 µM (active) |  | > 100 µM (inactive) | > 100 µM (inactive) | > 100 µM (inactive) | > 100 µM (inactive) |
